Patent US20230226040A1, “COMBINATION THERAPY COMPRISING AN FGFR INHIBITOR AND A KRAS INHIBITOR” (Incyte Corporation, priority 2021, published 2023)

How the values were obtained:
Format in all cases: cell-based
H358 = assay: 5-day Cell Titer Glo combination matrix, Bliss score; settings: H358 (Lung, Epithelial), 5 days
Description: (§2) Cells were seeded in RPMI medium with 10% HI FBS at a density of 500 cells/well in Greiner, white, clear bottom, 384-well tissue culture treated plates containing 10×10 combination matrices of compound. Plates were incubated at 37° C., 5% CO2 for 5 days. On day 5, Cell Titer Glo reagent was added to the plates and ATP luminescence was detected using a Pherastar FSX reader. The synergy score for the combination effect was calculated using a Bliss score model where the Bliss score=Yab-(Ya+Yb−(YaYb))×100, where Ya and Yb are the monotherapies. Bliss scores >20 are strongly synergistic and a higher Bliss scores indicates a higher level of synergism.
(§3) Cells were seeded in RPMI medium with 10% HI FBS at a density of 500 cells/well in Greiner, white, clear bottom, 384-well tissue culture treated plates containing 10×10 combination matrices of compound. Plates were incubated at 37° C., 5% CO2 for 5 days. On day 5, Cell Titer Glo reagent was added to the plates and ATP luminescence was detected using a Pherastar FSX reader. Synergy score for the combination effect is calculated using a Bliss score model where the Bliss score=Yab−(Ya+Yb−(YaYb))×100, where Ya and Yb are the monotherapies. Bliss scores >20 are strongly synergistic and a higher Bliss scores indicates a higher level of synergism.
(§4) Cells were seeded in RPMI medium with 10% HI FBS at a density of 500 cells/well in Greiner, white, clear bottom, 384-well tissue culture treated plates containing 10×10 combination matrices of compound. Plates were incubated at 37° C., 5% CO2 for 5 days. On day 5, Cell Titer Glo reagent was added to the plates and ATP luminescence was detected using a Pherastar FSX reader. The synergy score for the combination effect was calculated using a Bliss score model where the Bliss score=Yab−(Ya+Yb−(YaYb))×100, where Ya and Yb are the monotherapies. Bliss scores >20 are strongly synergistic and a higher Bliss scores indicates a higher level of synergism.

SW-1573 = assay: as above; settings: SW-1573 (Lung, Mesenchymal), 5 days
Description: as §2, §3, §4

H1792 = assay: as above; settings: H1792 (Lung, Mesenchymal), 5 days
Description: as §2, §3, §4

LU-99 = assay: as above; settings: LU-99 (Lung, Mesenchymal); FGFR inhibitor in combination with Cmpd 3; 5 days
Description: as §3, §4

A427 cells = assay: siRNA FGFR knockdown plus KRAS G12D inhibitor, Cell Titer Glo proliferation; settings: FGFR1 isoform knocked down; 120 h
Description: To further evaluate the KRAS/FGFR combination mechanism of action, siRNA FGFR knockdown experiments were conducted in A427 cells, followed by treatment with KRAS G12D inhibitors Compound 5, Compound 6, and Compound 7. Knockdown efficiency was assessed by Western blot (FIG. 13A) and its effect was measured by cell proliferation inhibition (FIGS. 13B-G). Initially, the effect of single FGFR isoforms knockdown in combination with KRAS G12D inhibitors Compound 5 (FIG. 13B), Compound 6 (FIG. 13D) and Compound 7 (FIG. 13F) was assessed. […] In addition, combining FGFR1 knockdown with knockdown of additional FGFR isoforms further increased the effect of KRAS G12D inhibitors (FIGS. 13C, E and G)
(§1) The lyophilized siRNA pools or individuals (Dharmacon ON-TARGET plus siRNA from Horizon Discovery) were reconstituted by combining 1× siRNA buffer (200 μL) with lyophilized siRNA (20 nmol); or combining lx siRNA buffer (100 μL) with lyophilized siRNA (10 nmol). Dharmafect Reagent 1 was prepared at a 1:200 dilution in 1× siRNA buffer. One tube of diluted reagent was prepared for each siRNA dilution. To each tube, the appropriate siRNA was added to Dharmafect Reagent 1 at a 1:400 dilution. The prepared siRNA reagent (25 μL per well) was added to the appropriate number of wells on a 96-well clear bottom Greiner plate and incubated at room temperature for 30 min.
For plating in 96-well pates, 2000 A427 cells per well in 100 !IL of medium were prepared. The prepared cells (100 !IL per well) were added to each well of the 96-well plate and incubated at 48 h.
Compound plates were prepared with a compound starting concentration of 5 mM in a 3-fold dilution. Following 48 h transfection incubation, the appropriate compounds were added to the 96-well plate at a final starting concentration of 5μM in 3-fold dilution (11 point dose response curve). After addition of the compounds, the 96-well plates were incubated at 37° C. for 120 h. […] The plates were tapped gently and luminescence was read on a Pherastar microplate reader.

SW-837 = assay: 5-day Cell Titer Glo combination matrix, Bliss score; settings: SW-837 (CRC, Epithelial); KRAS inhibitor in combination with pemigatinib; 5 days
Description: as §2, §4

Calu-1 = assay: as above; settings: Calu-1 (Lung, Mesenchymal); KRAS inhibitor in combination with pemigatinib; 5 days
Description: as §2

HCC-44 = assay: as above; settings: HCC-44 (Lung, Mesenchymal); KRAS inhibitor in combination with pemigatinib; 5 days
Description: as §2, §4

LU99 cells = assay: siRNA FGFR knockdown plus KRAS G12C inhibitor, Cell Titer Glo proliferation; settings: in the absence of FGFR1 or FGFR4; 120 h
Description: Knockdown efficiency was assessed by Western blot and its effect was measured by cell proliferation inhibition.
as §1, with “combining 1×” for “combining lx”, “in 1X” for “in 1×”, “([…]” for “(25 μL”
For plating in 96-well pates, 2000 LU99 cells per well in 100 μL of medium were prepared. The prepared cells (100 μL per well) were added to each well of the 96-well plate and incubated at 48 h.
Compound plates were prepared with a compound starting concentration of 5 mM in a 3-fold dilution. Following 48 h transfection incubation, the appropriate compounds were added to the 96-well plate at a final starting concentration of 5 μM in 3-fold dilution (11 point dose response curve). After addition of the compounds, the 96-well plates were incubated at 37° C. for 120 h. After this time, Cell Titer Glo reagent is reconstituted and 100 μL of reagent was added per well. The plates were tapped gently and luminescence was read on a Pherastar microplate reader.

[1] = FGFR inhibitor in combination with Cmpd 3
[2] = KRAS inhibitor in combination with pemigatinib

Row | Structure (SMILES) | Avg. Bliss Score (H358; [1]) | Avg. Bliss Score (SW-1573; [1]) | Avg. Bliss Score (H1792; [1]) | Avg. Bliss Score (LU-99) | inhibition of A427 cell proliferation after siRNA knockdown (A427 cells) | also measured
1 | C=CC(=O)N1CC[C@H](n2nc(C#Cc3cc(OC)cc(OC)c3)c3c(N)ncnc32)C1 [TAS-120] | 3.3 | 6.6 | 17.4 | 22 |  | 
2 | COc1cc(OC)cc(N(CCNC(C)C)c2ccc3ncc(-c4cnn(C)c4)nc3c2)c1 [Erdafitinib] | 4.4 | 7.9 | 12.9 | 34.7 |  | 
3 | Cc1cc2c(-n3cncn3)nc3c(F)c(-c4cc(O)cc5ccc(F)cc45)c(CCC#N)cc3c2n1[C@H]1[C@H]2CN[C@@H]1C2 [Compound 5, 3-(1-((1R,4R,5S)-2-Azabicyclo[2.1.1]hexan-5-yl)-6-fluoro-7-(7-fluoro-3-hydroxynaphthalen-1-yl)-2-methyl-4-(1H-1,2,4-triazol-1-yl)-1H-pyrrolo[3,2-c]quinolin-8-yl)propanenitrile] |  |  |  |  | higher inhibition in proliferation compared to controls | 
4 | CC(=O)N1CCC[C@@H]1c1cc2c(O[C@@H](C)[C@@H]3CCCN3C)nc3c(F)c(-c4cccc5c4C(C#N)CCC5)c(C)cc3c2n1[C@H]1[C@H]2CN[C@@H]1C2 (stereo partly shown) [Compound 6] |  |  |  |  | higher inhibition in proliferation compared to controls | 
5 | CCOc1nc2c(F)c(-c3cc(O)cc4ccccc34)c(CCC#N)cc2c2c1cc(CN1CCN(CC)CC1=O)n2[C@H]1[C@H]2CN[C@@H]1C2 [Compound 7] |  |  |  |  | higher inhibition in proliferation compared to controls | 
6 | C=CC(=O)N1CC[C@H](n2ncc3c(N4CC(N(C)C)C4)nc4c(F)c(-c5c(C)c(Cl)cc6[nH]ncc56)c(Cl)cc4c32)C[C@H]1CC#N [Compound 4, 2-((2S,4S)-1-acryloyl-4-(8-chloro-7-(6-chloro-5-methyl-1H-indazol-4-yl)-4-(3-(dimethylamino)azetidin-1-yl)-6-fluoro-1H-pyrazolo[4,3-c]quinolin-1-yl)piperidin-2-yl)acetonitrile] |  |  |  |  |  | Avg. Bliss Score (H358; [2]): −3; Avg. Bliss Score (SW-837): −11.7; Avg. Bliss Score (Calu-1): −9.9; Avg. Bliss Score (HCC-44): 4.7; Avg. Bliss Score (SW-1573; [2]): 17; Avg. Bliss Score (H1792; [2]): 30
7 | CN(C)C1(C)CN(c2nc3c(F)c(-c4ccc(F)c5cccnc45)c(C(F)(F)F)cc3c3c2nnn3[C@H]2CCN(C(=O)/C=C/CF)[C@H](CC#N)C2)C1 [Compound 3, 2-((2S,4S)-4-(4-(3-(dimethylamino)-3-methylazetidin-1-yl)-6-fluoro-7-(5-fluoroquinolin-8-yl)-8-(trifluoromethyl)-1H-[1,2,3]triazolo[4,5-c]quinolin-1-yl)-1-((E)-4-fluorobutenoyl)piperidin-2-yl)acetonitrile] |  |  |  |  |  | Avg. Bliss Score (H358; [2]): 3.8; Avg. Bliss Score (SW-837): 0.9; Avg. Bliss Score (Calu-1): 8.7; Avg. Bliss Score (HCC-44): 5.8; Avg. Bliss Score (SW-1573; [2]): 18.6; Avg. Bliss Score (H1792; [2]): 28.5; inhibition of LU99 cell proliferation after siRNA knockdown (LU99 cells): higher inhibition in proliferation
8 | CCN1CCN(c2ccc(Nc3cc(N(C)C(=O)Nc4c(Cl)c(OC)cc(OC)c4Cl)ncn3)cc2)CC1 [BGJ398] | −0.8 | 7.5 | 11.2 | 31.9 |  | 
